ChEMBL document CHEMBL1139815, “Synthesis and characterization of a pegylated derivative of 3-(1,2,3,6-tetrahydro-pyridin-4yl)-1H-indole (IDT199): a high affinity SERT ligand for conjugation to quantum dots” (Bioorg Med Chem Lett, 2007)

Target: Sodium-dependent serotonin transporter (Homo sapiens, UniProt P31645)
Assay: Displacement of [3H]serotonin from human SERT expressed in HeLa cells
Format: cell-based

Sequence of Sodium-dependent serotonin transporter (P31645 whole entry): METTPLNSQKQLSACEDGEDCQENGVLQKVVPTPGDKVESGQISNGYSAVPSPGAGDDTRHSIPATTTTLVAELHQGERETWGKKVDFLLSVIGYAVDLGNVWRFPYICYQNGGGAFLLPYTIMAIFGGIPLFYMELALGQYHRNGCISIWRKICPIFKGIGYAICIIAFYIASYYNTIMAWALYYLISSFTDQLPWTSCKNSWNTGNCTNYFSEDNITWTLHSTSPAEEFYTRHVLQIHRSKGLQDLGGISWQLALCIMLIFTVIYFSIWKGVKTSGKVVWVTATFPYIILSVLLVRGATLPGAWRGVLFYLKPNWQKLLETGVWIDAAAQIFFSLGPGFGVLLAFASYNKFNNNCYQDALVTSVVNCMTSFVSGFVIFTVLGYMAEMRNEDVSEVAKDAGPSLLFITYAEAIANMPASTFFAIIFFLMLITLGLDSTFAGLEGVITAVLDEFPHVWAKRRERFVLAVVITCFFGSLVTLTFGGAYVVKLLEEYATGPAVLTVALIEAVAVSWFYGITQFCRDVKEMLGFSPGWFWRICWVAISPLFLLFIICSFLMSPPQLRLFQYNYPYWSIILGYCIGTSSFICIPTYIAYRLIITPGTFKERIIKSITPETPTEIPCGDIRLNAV

## NCCCCCCCCCCCN1CCC(c2c[nH]c3ccccc23)CC1
  IC50: 25 nM
